Series [1] concerns the target T1, dopamine transporter (DAT) (Homo sapiens, UniProt Q01959).
T1 construct: purchased Eurofins DiscoverX (SAFETYscan E/IC50 ELECT service)
The series is described as follows: SAFETYscan E/IC50 ELECT, dopamine transporter antagonist assay. As to conditions: single experiment. The class given is cell-based. The procedure: (§1) Assessment of the safety profile of VBJ103 across 78 assays using recombinant human targets was performed with the SAFETYscan E/IC50 ELECT service by Eurofins DiscoverX (San Diego, CA, USA). […] The assays were performed utilizing PathHunter enzyme fragment complementation (EFC) technology, FLIPR®-based cellular screening assays, KINOMEscan kinase binding assays and a variety of enzymatic assays. Further potential functional activity at opioid receptors was performed in the gpcrSCAN service by Eurofins DiscoverX. Hit Hunter® cAMP assays were carried out using Enzyme Fragment Complementation (EFC) with β-galactosidase (β-Gal) as the functional reporter.

In series [2] the target is T2, μ opioid receptor (OPRM1) (Homo sapiens, UniProt P35372).
T2 construct: purchased Eurofins DiscoverX (SAFETYscan; gpcrSCAN; HitHunter cAMP XS+)
T2 sequence (P35372 whole entry): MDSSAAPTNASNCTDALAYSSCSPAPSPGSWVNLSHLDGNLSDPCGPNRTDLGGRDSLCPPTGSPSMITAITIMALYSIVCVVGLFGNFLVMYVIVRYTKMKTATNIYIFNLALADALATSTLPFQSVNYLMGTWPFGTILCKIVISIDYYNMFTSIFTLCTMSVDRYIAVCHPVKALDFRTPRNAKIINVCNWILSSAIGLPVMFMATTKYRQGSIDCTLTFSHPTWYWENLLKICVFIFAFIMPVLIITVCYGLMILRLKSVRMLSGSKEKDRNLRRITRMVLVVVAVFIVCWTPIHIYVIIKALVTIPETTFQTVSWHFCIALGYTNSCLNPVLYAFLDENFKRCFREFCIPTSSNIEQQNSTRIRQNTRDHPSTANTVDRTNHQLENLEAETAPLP
The series is described as follows: Eurofins DiscoverX opioid receptor assays (SAFETYscan; HitHunter cAMP), OPRM1. Type of series: cell-based. The procedure: as §1
(§2) Assessment of potential positive allosteric modulator (PAM) activity at μ, δ and κ opioid receptors was performed with the DiscoverX HitHunter cAMP XS+ assay by Eurofins DiscoverX (San Diego, CA, USA).

Series [3] addresses T3, δ opioid receptor (OPRD1) (Homo sapiens, UniProt P41143).
T3 construct: purchased Eurofins DiscoverX (SAFETYscan; gpcrSCAN; HitHunter cAMP XS+)
The series is described as follows: Eurofins DiscoverX opioid receptor assays (SAFETYscan; HitHunter cAMP), OPRD1. Type of series: cell-based. The procedure:
as §1, §2

Series [4] is described as follows: Brain levels in vivo by UPLC-MS/MS. Set-up: species or system rat. The procedure:
VBJ103 levels in the brain were determined by PsychoGenics Inc (Paramus, USA). VBJ103 and vehicle solutions were administered subcutaneously at a dose of 100 mg·kg^−1. Male and female Sprague–Dawley rats (200–250 g) supplied by Envigo were used in this study and housed three per cage (26 cm × 47.6 cm × 20.3 cm) upon arrival. Rats with jugular vein catheters (JVC) were housed two per cage with a divider to prevent damage to catheters. Cages contained BedO’-Cob® bedding with Nylabones® for enrichment. Rats were acclimatised for 2 to 7 days prior to commencing studies. All rats were examined, handled and weighed prior to initiation of the study to assure adequate health and suitability. During the course of the study, 12/12 light/dark cycles were maintained with lights on at 6 AM. The room temperature was maintained between 20°C and 23°C with a relative humidity maintained around 50%. Chow (Lab diet 5001, LabDiet, St. Louis, MO, USA) and water were provided ad libitum throughout the acclimatisation period and during the treatment and collection period. Rats were randomly assigned to the experimental groups.
UPLC-MS/MS analysis was performed on a ODS 3 Inertsil C18 column 2.1 × 50 mm, 2 μm (GL Sciences 5020–84652), using a gradient of 40:60 solvent A (H2O + 0.5% formic acid):solvent B (ACN + 1.0% formic acid) → 0:100 for 2 min at a flow rate of 0.5 ml·min^−1. The following parameters were used: injection volume 5 μl, column temperature 40°C, pre-column temperature 40°C and sample temperature 4°C. Eluted peaks were monitored with a Waters Xevo TQ-XS coupled to an Acquity i-Class Plus UPLC setup (range: 334.19 Da to 155.04 and 198.08 Da). RT = 1.15 min. The range of quantitation was 0.25 to 10,000 ng·ml^−1 for brain. The software Masslynx V4.2 SCN1012 was used for instrument control and data acquisition.
Brain collection was performed via live decapitation. Whole brains were collected at 1 h following administration and upon completion of serial collections (24 h). Resultant brains were rinsed in saline and frozen immediately on a cold plate (−77°C) before placement into a pre-weighed specimen container. Brain weights were then determined prior to placement of the samples on dry ice followed by relocation to a −80°C freezer pending bioanalysis.
Pre-weighed whole brain tissue was homogenized (Omni Prep multichannel tissue homogenizer) using a 1:1 MilliQ water (containing 0.2% acetic acid)/acetonitrile mixture which was added to the brain using a 4:1 solution to brain ratio. Subsequently, the homogenate was centrifuged for 10 min at 4°C at a speed of 2688 g. Three 25-μl aliquots out of the top layer of the centrifuged homogenate were crashed into three QuanRecovery wells, each containing 150 μl of acetonitrile/internal standard. The crash was then centrifuged for 20 min at 2688 g while maintaining a temperature of 4°C. Mixing of the resultant supernatant with water (3:2) provided samples for triplicate analysis. Brain standards, quality controls (QCs) and blanks were prepared using a male Sprague–Dawley brain acquired from BioIVT using the same protocol outlined above. All standards, QCs, samples and blanks were then loaded onto the UPLC-MS/MS for analysis.
The concentration of VBJ103/mass was based on brain weights. The volume of the homogenate was based on a 4:1 dilution of the brains. The volumes of homogenate was calculated based on brain weights in Table S13.

Several values for one entry are separate records, joined by “and”; a condition that tells them apart may be missing. Identical values can stand only once. Like-named read-outs stand apart in the source and are kept apart here.

T1 sequence (Q01959 whole entry): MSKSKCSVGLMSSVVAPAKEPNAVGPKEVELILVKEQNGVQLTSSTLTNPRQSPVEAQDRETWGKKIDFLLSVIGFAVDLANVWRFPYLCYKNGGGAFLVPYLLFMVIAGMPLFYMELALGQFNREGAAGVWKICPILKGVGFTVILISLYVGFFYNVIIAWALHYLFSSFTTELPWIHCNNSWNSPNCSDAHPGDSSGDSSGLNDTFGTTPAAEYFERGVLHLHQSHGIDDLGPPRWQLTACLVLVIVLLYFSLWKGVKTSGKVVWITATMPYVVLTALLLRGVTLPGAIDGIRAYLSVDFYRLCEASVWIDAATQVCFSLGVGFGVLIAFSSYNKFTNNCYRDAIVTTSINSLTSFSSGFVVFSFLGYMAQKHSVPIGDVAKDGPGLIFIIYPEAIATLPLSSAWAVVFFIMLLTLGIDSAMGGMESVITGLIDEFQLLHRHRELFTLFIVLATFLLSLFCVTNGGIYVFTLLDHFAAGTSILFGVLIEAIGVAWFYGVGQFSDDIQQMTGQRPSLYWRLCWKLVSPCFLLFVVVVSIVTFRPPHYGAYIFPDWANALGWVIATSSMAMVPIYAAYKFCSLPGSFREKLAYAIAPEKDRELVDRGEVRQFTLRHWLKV
T3 sequence (P41143 whole entry): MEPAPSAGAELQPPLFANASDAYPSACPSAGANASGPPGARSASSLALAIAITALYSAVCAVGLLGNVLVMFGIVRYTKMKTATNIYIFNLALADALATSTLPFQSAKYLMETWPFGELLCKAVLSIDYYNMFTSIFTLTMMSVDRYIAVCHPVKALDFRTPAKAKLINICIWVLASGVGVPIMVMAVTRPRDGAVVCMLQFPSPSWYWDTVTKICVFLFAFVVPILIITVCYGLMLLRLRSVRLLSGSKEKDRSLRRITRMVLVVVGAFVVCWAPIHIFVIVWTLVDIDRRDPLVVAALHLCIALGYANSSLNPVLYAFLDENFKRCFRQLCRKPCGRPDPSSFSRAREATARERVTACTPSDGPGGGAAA

What is called IC50 is the concentration at which inhibition is half-maximal. Higher therefore signals weaker potency in that assay. The term EC50 denotes the concentration giving half of the maximal effect. In the case of `O=C(NC1CCC2(CCCC2)CC1)c1ccc(-c2ccccc2)cc1` [VBJ103, N-(Spiro[4.5]decan-8-yl)-[1,1′-biphenyl]-4-carboxamide], the IC50 in series [1] (10 concentrations, 0.005 to 100 μM) is 125 nM and ~125 nM. In addition, the DAT maximal inhibition in series [1] (in relation to the control GBR 12909) is on record as ~ 60%. In addition, the Emax amounted to 14.5% in series [2] (OPRM1, Positive Allosteric Modulator format, read-out: Max Response, cAMP) and 0% in series [3] (Positive Allosteric Modulator format, read-out: Max Response, cAMP). The EC50 in series [2] (read-out: RC50 (EC50), cAMP) is greater than 100000 nM; in series [3] (read-out: RC50 (EC50), cAMP), greater than 100000 nM. The “activity at μ opioid receptor” value in series [2] (safety panel) is given as “no activity”. The “activity at δ opioid receptor” value in series [3] (safety panel) is “no activity”. Also, the concentration at 1 h was 14.6 nM and 11.9 nM and 7.1 nM and 8.1 nM in series [4] (female SD rats (animals 13-16), 100 mg/kg SC, 24 h, 100 mg/kg, read-out: brain levels, individual animals); 39 nM and 51 nM in series [4] (female SD rats (animals 26-28), 100 mg/kg SC, 1 h, 100 mg/kg, read-out: brain levels, individual animals); 40 nM in series [4] (female, Sprague-Dawley, rat, brain, sc, 100 mg/kg, female SD rats (animals 26-28), 100 mg/kg SC, 1 h, read-out: brain levels, individual animals); 43 ± 4 nM in series [4] (female, Sprague-Dawley, rat, brain, sc, 100 mg·kg^−1, female rats, 100 mg·kg−1 s.c., 1 h per Table S12, read-out: mean brain concentration); 6.9 nM and 7.9 nM and 3.9 nM and 4.9 nM in series [4] (male SD rats (animals 9-12), 100 mg/kg SC, 24 h, 100 mg/kg, read-out: brain levels, individual animals); 47 nM and 56 nM in series [4] (male SD rats (animals 23-25), 100 mg/kg SC, 1 h, 100 mg/kg, read-out: brain levels, individual animals). The concentration at 1 h in series [4] (male, Sprague-Dawley, rat, brain, sc, 100 mg/kg, male SD rats (animals 23-25), 100 mg/kg SC, 1 h, read-out: brain levels, individual animals) stood at 53 nM; in series [4] (male, Sprague-Dawley, rat, brain, sc, 100 mg·kg^−1, male rats, 100 mg·kg−1 s.c., 1 h per Table S12, read-out: mean brain concentration), 52 ± 2 nM.

These data come from paper PMC12459314, “Subcutaneous administration of a novel TRPM8 antagonist reverses cold hypersensitivity while attenuating the drop in core body temperature” (British journal of pharmacology, 2024).
